# Test results as given in patent US12226484B2, “Compositions having improved bioavailability of therapeutics” (TRx Biosciences Limited, priority 2021, dated 2025).
# Tests used:
# [1] = Biopharmaceutics Classification System class; cited from earlier work
# [2] = cited from earlier work
# [3] = Solubility of therapeutic compound in heated lipids in the absence of cholic acid (visual); conditions: 60° C., stirred at least 60 minutes; only MAISINE CC and MAISINE CC/GELUCIRE 43/01 in ratios of 2:1 to 1:2
# Description: ® 43/01, was then added in a stepwise fashion of 6 g to this lipid mixture until the total amount reached 24 g. […]
# [4] = Incorporation of therapeutic compound into glycerolipid formulations with digestion enhancers (visual; cooling and remelting); conditions: for behaviour on stepwise hard fat addition (visual): then GELUCIRE 43/01 up to 1,000 mg
# [5] = Formulating procedure: dissolution and stable incorporation in glycerolipid admixture/matrix; assay type: physicochemical; conditions: as shown in Example 3
# Description: As a first step, it is first determined whether a selected therapeutic compound can be formulated using 1) glycerolipids including at least one liquid fat (glycerolipid that is liquid at 18° C.) and at least one hard fat (glycerolipid that is solid at 18° C.) and 2) one or more digestion enhancers. In some embodiments, the one or more liquid and hard fats are first heated and the one or more digestion enhancers are solubilized in the glycerolipid admixture. Upon completion of solubility of the digestion enhancers, and if appropriate, the temperature of the admixture can be adjusted and a selected therapeutic compound is then dissolved in this heated admixture to incorporate the compound. […] In some embodiments, the one or more liquid fats are first heated and the one or more digestion enhancers are solubilized in the liquid fats. […] The initial heating step in all procedures is performed at a temperature sufficient to dissolve the one or more digestion enhancers and selected therapeutic compound and can be empirically determined based on the melting point of the selected components. […] Any subsequent adjustment to the heat when one or more liquid fats and/or one or more hart fats are being added to the admixture is performed at a temperature sufficient to melt the hard fats and can be empirically determined based on the melting point of the hard fat used in the formulation. […]
# [6] = reported value; cited from earlier work
# [7] = Oleic acid miscibility / self-emulsification in dissolution media modelling ICH dissolution testing; assay type: physicochemical; conditions: 1 g (100% or 75%) in one liter PBS with […] curcumin, 37° C., 300 rpm 10 minutes, then 10 minutes without stirring
# Description: To assess whether oleic acid could self-emulsify at the concentrations used in the disclosed pharmaceutical compositions, experiments was performed that were designed to model dissolution testing according to International Council for Harmonisation (ICH) guidelines. […] Miscibility experiments were performed using two concentrations of oleic acid nominally above the CMC concentration for this fatty acid. In one series of experiments, 1 g of 100% oleic acid was added to the dissolution media. The control compound was 1 g of 100% MAISINE™ CC. In a second series of experiments 1 g of 75% oleic acid (diluted with 250 mg of MAISINE™ CC) was added to the dissolution media. The control compound was 1 g of 75% MAISINE™ CC. The miscibility of oleic acid and MAISINE™ CC was assessed by observing the dissolution media for 10 minutes with constant stirring and then 10 minutes without stirring. Photographs were taken at time 0, 1, 2, 3, 4, 5 and 10 minutes during the stirring phase and 2, 4 and 10 minutes after stirring ceased.
# Both oleic acid preparations quickly distributed throughout the PBS in small but clearly defined lipid droplets which were still observable after 10 minutes of stirring. On cessation of stirring, the lipid droplets either adhered to the stirrer or floated to the top of the PBS, with the bulk of the PBS clearing. […]
# [8] = previous studies; cited from earlier work
Structure (SMILES),Log P [2],also measured
Cc1ccc(=O)n(-c2ccccc2)c1 [Pirfenidone],>1,BCS [1]: I
CO[C@@H]1[C@@H](OC(N)=O)[C@@H](O)[C@H](Oc2ccc3c(O)c(NC(=O)c4ccc(O)c(CC=C(C)C)c4)c(=O)oc3c2C)OC1(C)C [Novobiocin],>1,
Clc1ccc(CCCOCCCN2CCCCC2)cc1 [pitolosant],,solubility in heated lipid in the absence of cholic acid (visual) [3]: remained insoluble
C[C@@H](O[C@H]1OCCN(Cc2n[nH]c(=O)[nH]2)[C@H]1c1ccc(F)cc1)c1cc(C(F)(F)F)cc(C(F)(F)F)c1 [Aprepitant],>1,"incorporation into heated glycerolipid mixture (visual) ([4]; 50 mg with 40 mg cholic acid added to 500 mg MAISINE CC and 1,000 mg GELUCIRE 43/01 together, about 120° C. to about 160° C.): failed to incorporate; behaviour on stepwise hard fat addition (visual) ([4]; 50 mg with 40 mg cholic acid in 500 mg MAISINE CC, about 120° C. to about 160-170° C.): remained in solution; behaviour on stepwise hard fat addition (visual) ([4]; 60 mg dissolved in 500 mg MAISINE CC without cholic acid, about 120° C. to about 160° C.): precipitate"
COC(=O)c1ccc2c(c1)NC(=O)/C2=C(\Nc1ccc(N(C)C(=O)CN2CCN(C)CC2)cc1)c1ccccc1 [nintedanib esylate],,"incorporation into heated glycerolipid mixture (visual) ([4]; 40 mg in 1.0 g MAISINE CC with 1.5 g oleic acid and 100 or 150 mg sodium oleate or sodium stearate, about 130° C., no cholic acid or lecithin): failed to incorporate; incorporation into heated glycerolipid mixture (visual) ([4]; 40 mg in 1.0 g MAISINE CC with 1.5 g oleic acid, sodium oleate or sodium stearate, and 30 mg of cholic acid or 30 mg lecithin, about 130° C.): became soluble"
O=C(C1CCCCC1)N1CC(=O)N2CCc3ccccc3C2C1 (centres unmarked) [Praziquantel],>1,
CN(C)C(=N)N=C(N)N [Metformin],,BCS [1]: I
COc1cc(/C=C/C(=O)CC(=O)/C=C/c2ccc(O)c(OC)c2)ccc1O [Curcumin],>1,solubility using a formulation disclosed herein [5]: soluble
CO[C@@H]1[C@H](N(C)C(=O)c2ccccc2)C[C@H]2O[C@]1(C)n1c3ccccc3c3c4c(c5c6ccccc6n2c5c31)C(=O)NC4 [Midostaurin],>1,
CC(C)OC(=O)C(C)(C)Oc1ccc(C(=O)c2ccc(Cl)cc2)cc1 [Fenofibrate],>1,
COC(=O)c1ccc2c(c1)NC(=O)/C2=C(\Nc1ccc(N(C)C(=O)CN2CCN(C)CC2)cc1)c1ccccc1 [Nintedanib],>1,BCS [1]: II or IV
COc1ccc2[nH]c([S+]([O-])Cc3ncc(C)c(OC)c3C)nc2c1 (centres unmarked) [Omeprazole],>1,
CCCCCCCCCCCCCCCCCC(=O)[O-].[Na+] [sodium stearate],,critical micellar concentration (CMC) [6]: 71 µM
O=C(c1cc(Cc2n[nH]c(=O)c3ccccc23)ccc1F)N1CCN(C(=O)C2CC2)CC1 [Olaparib],>1,"appearance on remelting of the solid composition (visual) ([4]; MAISINE CC, fatty acid component, cholic acid and GELUCIRE 43/01, 130° C., cooled, remelted at 50° C.): no precipitate formation; behaviour on cooling and solidification (visual) ([4]; MAISINE CC, oleic acid and GELUCIRE 43/01 without cholic acid, 130° C., cooled to room temperature): precipitated out of solution"
O=C(NC(Cc1cc(=O)[nH]c2ccccc12)C(=O)O)c1ccc(Cl)cc1 (centres unmarked) [Rebamipide],>1,
CCCCCCCC(=O)N[C@H](CN1CCCC1)[C@H](O)c1ccc2c(c1)OCCO2 [Eliglustat],>1,BCS [1]: I or III
COC(=O)Nc1nc2ccc(C(=O)c3ccccc3)cc2[nH]1 [Mebendazole],>1,
Cc1ccc(C)c(OCCCC(C)(C)C(=O)O)c1 [Gemfibrozil],>1,

Structure (SMILES),Log P [2],also measured
CC(C)(C)c1cc(NC(=O)Nc2ccc(Oc3ccnc4[nH]c(=O)cnc34)cc2F)n(-c2cccc(F)c2)n1 [CCT3833],>1,
CN(C)CCC=C1c2ccccc2CCc2ccccc21 [Amitriptyline],>1,BCS [1]: I
C[C@]12CC[C@H](O)CC1=CC[C@@H]1[C@@H]2CC[C@]2(C)C(c3cccnc3)=CC[C@@H]12 [Abiraterone],>1,
CC1=C(/C=C/C(C)=C/C=C/C(C)=C/C(=O)O)C(C)(C)CCC1 [Retinoic acid],>1,
C[C@H](O)[C@H](O)[C@H]1CNc2nc(N)[nH]c(=O)c2N1 [Sapropterin],<1,BCS [1]: I
CC(C)c1ccc2oc3nc(N)c(C(=O)O)cc3c(=O)c2c1 [Amlexanox],>1,
CC(C)NCC(O)COc1cccc2ccccc12 (centres unmarked) [Propranolol],,BCS [1]: I
COc1ccc2cc([C@H](C)C(=O)O)ccc2c1 [naproxen sodium],,"incorporation into heated glycerolipid mixture (visual) ([4]; 393 mg alone added to 500 mg MAISINE CC and 1,000 mg GELUCIRE 43/01, about 130° C.): failed to incorporate"
N[C@@H](Cc1c[nH]c2ccccc12)C(=O)O [Tryptophan],<1,
CCCCCCCC/C=C\CCCCCCCC(=O)O [oleic acid],,critical micellar concentration (CMC) [6]: 2300 µM; miscibility in the dissolution media [7]: not miscible
O=C(O)c1cccnc1 [Niacin],<1,BCS [1]: I
NCCc1c[nH]c2ccc(O)cc12 [Serotonin],<1,
Clc1ccc(CCCOCCCN2CCCCC2)cc1 [Pitolisant],>1,BCS [1]: I
CC(=O)OC[C@H]1O[C@@H]([S-])[C@H](OC(C)=O)[C@@H](OC(C)=O)[C@@H]1OC(C)=O.CCP(CC)CC.[Au+] [Auranofin],,solubility in heated lipid in the absence of cholic acid (visual) [3]: remained insoluble
C=C(C)[C@@H]1CCC(C)=C[C@H]1c1c(O)cc(CCCCC)cc1O [cannabidiol],,solubility in a glycerolipid admixture of MAISINE CC and GELUCIRE 43/01 [8]: soluble
CC(=O)[C@H]1CC[C@H]2[C@@H]3CCC4=CC(=O)CC[C@]4(C)[C@H]3CC[C@]12C [Progesterone],>1,
O=C(c1ccc(OCCN2CCCCC2)cc1)c1c(-c2ccc(O)cc2)sc2cc(O)ccc12 [Raloxifene],>1,
